Measurements taken from PubChem BioAssay AID2801 (Sanford-Burnham Center for Chemical Genomics, 2010).

System: TNFa-induced NF-kB reporter cells, inhibition
Assay: analog potency on TNFa NF-kB signaling – cell-based, set 3, SAR follow-up (AID 2801)

IC50: 13 µM
SMILES: CCCCn1c(SCC(=O)Nc2nnc(CC)s2)nc2c1c(=O)n(C)c(=O)n2C
